Laboratory results: patent US20090234014A1, “Naphthalene-Disulfonamides Useful for the Treatment of Inflammation” (priority 2005, published 2009)

Biological target: T1, mPGES-1 (Homo sapiens, UniProt O14684)
T1 construct: made in house; host or cells: E. coli (membrane fraction)
T1 sequence (O14684 1-152): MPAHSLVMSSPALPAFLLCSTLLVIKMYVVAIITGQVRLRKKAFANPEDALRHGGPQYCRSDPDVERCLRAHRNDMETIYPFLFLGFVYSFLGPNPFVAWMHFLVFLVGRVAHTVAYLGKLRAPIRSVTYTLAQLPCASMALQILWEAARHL
Test: mPGES-1 assay: conversion of PGH2 to PGE2, PGE2 measured by HPLC
Type: biochemical
Details: mPGES-1 expressed in E. coli, membrane fraction; 25 min preincubation with inhibitor, 60 s with PGH2, room temperature; read-out: IC50 values
Procedure: In the assay mPGES-1 catalyses the reaction where the substrate PGH2 is converted to PGE2. mPGES-1 is expressed in E. coli and the membrane fraction is dissolved in 20 mM NaPi-buffer pH 8.0 and stored at −80° C. In the assay mPGES-1 is dissolved in 0.1M KPi-buffer pH 7.35 with 2.5 mM glutathione. The stop solution consists of H2O/MeCN (7/3), containing FeCl2 (25 mM) and HCl (0.15 M). The assay is performed at room temperature in 96-well plates. Analysis of the amount of PGE2 is performed with reversed phase HPLC (Waters 2795 equipped with a 3.9×150 mm C18 column). The mobile phase consists of H2O/MeCN (7/3), containing TFA (0.056%), and absorbance is measured at 195 nm with a Waters 2487 UV-detector.
The following is added chronologically to each well: • 1. 100 μL mPGES-1 in KPi-buffer with glutathione. Total protein concentration: 0.02 mg/mL. • 2. 1 μL inhibitor in DMSO. Incubation of the plate at room temperature for 25 minutes. • 3. 4 μL of a 0.25 mM PGH2 solution. Incubation of the plate at room temperature for 60 seconds. • 4. 100 μL stop solution. • 180 μL per sample is analyzed with HPLC.

| SMILES | IC50 [nM] |
| --- | --- |
| Cc1cc(C)c(NS(=O)(=O)c2cc(S(=O)(=O)Nc3c(C)cc(C)cc3C)c3cc(O)ccc3c2)c(C)c1 [Example 3, N^1,N^3-di(mesityl)-7-hydroxynaphthalene-1,3-disulfonamide] | 1100 |
| Cc1ccc(Cl)cc1NS(=O)(=O)c1cc(S(=O)(=O)Nc2cc(Cl)ccc2C)c2cc(O)ccc2c1 [Example 7, N^1,N^3-di(5-chloro-2-methylphenyl)-7-hydroxynaphthalene-1,3-disulfonamide] | 1200 |
| O=S(=O)(Nc1ccccc1C(F)(F)F)c1cc(S(=O)(=O)Nc2ccccc2C(F)(F)F)c2cc(O)ccc2c1 [Example 9, N^1,N^3-di(2-trifluoromethylphenyl)-7-hydroxynaphthalene-1,3-disulfonamide] | 4100 |
| Cc1cccc(C)c1NS(=O)(=O)c1cc(S(=O)(=O)Nc2c(C)cccc2C)c2ccccc2c1 [Example 11, N^1,N^3-di(2,6-xylyl)naphthalene-1,3-disulfonamide] | 1700 |
| Cc1c(Cl)cccc1NS(=O)(=O)c1cc(S(=O)(=O)Nc2cccc(Cl)c2C)c2ccccc2c1 [Example 15, N^1,N^3-di(3-chloro-2-methylphenyl)naphthalene-1,3-disulfonamide] | 1700 |
| Cc1ccc(Cl)cc1NS(=O)(=O)c1cc(S(=O)(=O)Nc2cc(Cl)ccc2C)c2ccccc2c1 [Example 16, N^1,N^3-di(5-chloro-2-methylphenyl)naphthalene-1,3-disulfonamide] | 1300 |
| Cc1ccc(NS(=O)(=O)c2cc(S(=O)(=O)Nc3ccc(C)cc3)c3ccccc3c2)cc1 [Example 20, N^1,N^3-di(p-tolyl)naphthalene-1,3-disulfonamide] | 3700 |

Same assay, conditions: mPGES-1 expressed in E. coli, membrane fraction; stated as 10 μM or below; read-out: concentration exhibiting 50% inhibition of mPGES-1

| SMILES | IC50 [nM] |
| --- | --- |
| O=S(=O)(Nc1ccccc1)c1cc(S(=O)(=O)Nc2ccccc2)c2cc(O)ccc2c1 [N^1,N^3-Diphenyl-7-hydroxynaphthalene-1,3-disulfonamide] | ≤ 10000 |
